Source: ChEMBL document CHEMBL1201862, “PubChem BioAssay data set” (2004)
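Growth conditions: 96-well plates. Treatment: test compound, 48 hours, 5 concentrations. Analysis: linear interpolation between bracketing concentrations; unreached endpoints set to highest concentration. Abbreviation: GI50, concentration required for 50% inhibition of growth.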 Activity calls are given as the source filed them. No stated cut-off is given here; in the data, active = GI50 up to about 1.1 µM and inactive = higher.

Tests used:
Test in all cases: NCI anticancer screen, dose series, 48 h
ACHN = tested on: ACHN
BT-549 = tested on: BT-549
HCC 2998 = tested on: HCC 2998
HOP-62 = tested on: HOP-62
LOX IMVI = tested on: LOX IMVI
M14 = tested on: M14
MCF7 = tested on: MCF7
MDA-N = tested on: MDA-N
NCI/ADR-RES = tested on: NCI/ADR-RES
SR = tested on: SR
TK-10 = tested on: TK-10
DLD-1 = tested on: DLD-1
DMS-114 = tested on: DMS-114
DMS-273 = tested on: DMS-273
HOP-18 = tested on: HOP-18
KM-20L2 = tested on: KM-20L2
M19-MEL = tested on: M19-MEL
SF-539 = tested on: SF-539
SNB-78 = tested on: SNB-78
XF498 = tested on: XF498

Compound | GI50 (ACHN) | GI50 (BT-549) | GI50 (HCC 2998) | GI50 (HOP-62) | GI50 (LOX IMVI) | GI50 (M14) | GI50 (MCF7) | GI50 (MDA-N) | GI50 (NCI/ADR-RES) | GI50 (SR) | GI50 (TK-10) | GI50 (DLD-1) | GI50 (DMS-114) | GI50 (DMS-273) | GI50 (HOP-18) | GI50 (KM-20L2) | GI50 (M19-MEL) | GI50 (SF-539) | GI50 (SNB-78) | GI50 (XF498)
CC1(C)C(=O)c2ccccc2OC1N1CCN(C2Oc3ccccc3C(=O)C2(C)C)CC1 (stereo not drawn) | > 100 µM (inactive) | > 100 µM (inactive) | > 100 µM (inactive) | > 100 µM (inactive) | > 100 µM (inactive) | > 100 µM (inactive) | > 100 µM (inactive) | > 100 µM (inactive) | > 100 µM (inactive) | > 100 µM (inactive) | > 100 µM (inactive) | – | – | – | – | – | – | – | – | –
CC(C)C1NC(=O)CC(c2ccccc2)N(N=O)C1c1ccccc1 (stereo not drawn) | – | – | > 100 µM (inactive) | > 100 µM (inactive) | > 100 µM (inactive) | – | > 100 µM (inactive) | – | > 100 µM (inactive) | – | – | > 100 µM (inactive) | > 95.7 µM (inactive) | > 100 µM (inactive) | > 100 µM (inactive) | > 100 µM (inactive) | > 100 µM (inactive) | > 100 µM (inactive) | > 100 µM (inactive) | 37.8 µM (inactive)
COc1cc(C2c3cc4c(cc3OC3(O)COC(=O)C23)OCO4)cc(OC)c1OC (stereo not drawn) | 53 µM (inactive) | – | 70 µM (inactive) | 62.7 µM (inactive) | 47.5 µM (inactive) | 34.7 µM (inactive) | – | – | – | 16.7 µM (inactive) | 51.3 µM (inactive) | 45.9 µM (inactive) | 34.7 µM (inactive) | 36.5 µM (inactive) | > 100 µM (inactive) | 24.3 µM (inactive) | 56.6 µM (inactive) | 28.8 µM (inactive) | > 100 µM (inactive) | 35.7 µM (inactive)
Cc1cc(Cl)ccc1NC1=NC(=O)C(CC(=O)Nc2cccc(Cl)c2)S1 (stereo not drawn) | 11.2 µM (inactive) | – | 63.2 µM (inactive) | > 100 µM (inactive) | 13.3 µM (inactive) | 44.7 µM (inactive) | – | – | – | – | 83.6 µM (inactive) | 21.7 µM (inactive) | 12.1 µM (inactive) | 29.8 µM (inactive) | > 100 µM (inactive) | 26.5 µM (inactive) | 43.9 µM (inactive) | 77.6 µM (inactive) | > 100 µM (inactive) | 28.4 µM (inactive)
CCCn1cc2c(O)nc(SC)nc2n1 | > 100 µM (inactive) | – | > 100 µM (inactive) | – | > 100 µM (inactive) | > 100 µM (inactive) | – | – | – | 57.3 µM (inactive) | > 100 µM (inactive) | > 100 µM (inactive) | 91.6 µM (inactive) | > 100 µM (inactive) | 28.8 µM (inactive) | – | – | > 100 µM (inactive) | 32.3 µM (inactive) | 45.3 µM (inactive)
O=C1C(Cl)=C(c2ccc([N+](=O)[O-])cc2)C(=O)c2c(O)cccc21 | 1.11 µM (active) | 1.03 µM (active) | 2.26 µM (inactive) | 4.17 µM (inactive) | 1.39 µM (inactive) | 0.979 µM (active) | 4.88 µM (inactive) | 2.49 µM (inactive) | 2.39 µM (inactive) | 0.134 µM (active) | 3.14 µM (inactive) | 1.16 µM (inactive) | 0.202 µM (active) | 4.06 µM (inactive) | 0.573 µM (active) | – | 1.57 µM (inactive) | 0.341 µM (active) | 1.83 µM (inactive) | 0.395 µM (active)
COc1ccc(C2C(Cl)C(=O)N2NC(=O)c2ccccc2O)cc1 (stereo not drawn) | – | – | – | > 100 µM (inactive) | – | > 100 µM (inactive) | – | – | – | > 100 µM (inactive) | > 100 µM (inactive) | – | > 100 µM (inactive) | – | – | > 100 µM (inactive) | > 100 µM (inactive) | > 100 µM (inactive) | – | –
Cc1c2cc[n+](Cc3ccc(I)cc3)cc2c(C)c2c1[nH]c1ccccc12 | – | – | 0.881 µM (active) | 0.778 µM (active) | 2.16 µM (inactive) | – | 0.783 µM (active) | – | > 25 µM (inactive) | – | – | 0.94 µM (active) | 0.605 µM (active) | 0.506 µM (active) | 1 µM (active) | 0.748 µM (active) | 0.254 µM (active) | 1.74 µM (inactive) | 0.731 µM (active) | 0.433 µM (active)
CO/C=C1\OC(=O)C=C1OC | – | – | > 100 µM (inactive) | – | > 100 µM (inactive) | – | > 100 µM (inactive) | – | > 100 µM (inactive) | – | – | > 100 µM (inactive) | > 100 µM (inactive) | > 100 µM (inactive) | > 100 µM (inactive) | – | > 100 µM (inactive) | > 100 µM (inactive) | > 100 µM (inactive) | > 100 µM (inactive)
CC1(C)CCC(C)(C)c2c1ccc(O)c2Cc1c(O)ccc2c1C(C)(C)CCC2(C)C | 1.74 µM (inactive) | 2.33 µM (inactive) | – | 2.19 µM (inactive) | 1.84 µM (inactive) | 1.88 µM (inactive) | 1.84 µM (inactive) | 1.92 µM (inactive) | 2.08 µM (inactive) | 2.7 µM (inactive) | 1.98 µM (inactive) | – | – | – | – | – | – | 1.99 µM (inactive) | – | –
C=CCN(N=O)C(=O)N(CCC)CCCCC(NC(C)=O)C(=O)NCc1ccccc1 (stereo not drawn) | > 100 µM (inactive) | – | – | > 100 µM (inactive) | 67.1 µM (inactive) | > 100 µM (inactive) | – | – | – | – | > 100 µM (inactive) | – | 59.2 µM (inactive) | > 100 µM (inactive) | > 100 µM (inactive) | 91.6 µM (inactive) | 56 µM (inactive) | > 100 µM (inactive) | – | > 100 µM (inactive)
COC(=O)c1c(O)ccc2c1c1c(n2Cc2cccc(C)c2)C(=O)c2ccccc2C1 | 21.1 µM (inactive) | 26.5 µM (inactive) | – | 10.4 µM (inactive) | 19.8 µM (inactive) | 14.5 µM (inactive) | 27.9 µM (inactive) | – | 15.5 µM (inactive) | 13.7 µM (inactive) | 22 µM (inactive) | – | – | – | – | – | – | 17.1 µM (inactive) | – | –
O=C1NCN(c2ccccc2)C12CCN(CCCSc1ccc(F)cc1)CC2 | 19.7 µM (inactive) | – | 20.2 µM (inactive) | 25.5 µM (inactive) | 10.5 µM (inactive) | 6.25 µM (inactive) | 5.3 µM (inactive) | – | > 48 µM (inactive) | 15.9 µM (inactive) | 24.2 µM (inactive) | – | – | – | – | – | – | 17.3 µM (inactive) | – | –
C=CCOC1=C(OCC=C)C(C2COC(C)(C)O2)OC1=O (stereo not drawn) | > 100 µM (inactive) | > 100 µM (inactive) | > 100 µM (inactive) | > 100 µM (inactive) | 33.2 µM (inactive) | > 100 µM (inactive) | > 100 µM (inactive) | > 100 µM (inactive) | > 100 µM (inactive) | 98.2 µM (inactive) | > 100 µM (inactive) | – | – | – | – | – | – | > 100 µM (inactive) | – | –
CC(=O)NNc1nc(C)c(C(=O)NNC(=O)C(=O)Nc2cccc(C(C)=O)c2)s1 | 16.9 µM (inactive) | – | 17.3 µM (inactive) | 25.3 µM (inactive) | 21.2 µM (inactive) | – | – | – | – | 18 µM (inactive) | 16.9 µM (inactive) | 28.1 µM (inactive) | 18.3 µM (inactive) | 34.8 µM (inactive) | – | 59 µM (inactive) | 19.9 µM (inactive) | 18.7 µM (inactive) | 75.3 µM (inactive) | 16.4 µM (inactive)
c1ccc(COC2(OCc3ccccc3)CC3OC2C2NN=NC32)cc1 (stereo not drawn) | > 100 µM (inactive) | – | > 10 µM (inactive) | 41.9 µM (inactive) | 16.8 µM (inactive) | 18.5 µM (inactive) | – | – | – | – | – | 15.8 µM (inactive) | – | 21.2 µM (inactive) | 36.2 µM (inactive) | 54.6 µM (inactive) | 17.7 µM (inactive) | 22.1 µM (inactive) | 28.7 µM (inactive) | 19.3 µM (inactive)
c1ccc(/N=C2\S/C(=N\C3CCCCC3)N(C3CCCCC3)\C2=N/c2ccccc2)cc1 | – | > 100 µM (inactive) | > 100 µM (inactive) | > 100 µM (inactive) | – | > 100 µM (inactive) | > 100 µM (inactive) | > 100 µM (inactive) | > 100 µM (inactive) | > 100 µM (inactive) | – | – | – | – | – | – | – | – | – | –
Cn1ccnc1C(O)(c1nccn1C)c1nccn1C | > 100 µM (inactive) | – | > 100 µM (inactive) | > 100 µM (inactive) | > 100 µM (inactive) | > 100 µM (inactive) | – | – | – | > 100 µM (inactive) | > 100 µM (inactive) | > 100 µM (inactive) | > 100 µM (inactive) | – | 14.1 µM (inactive) | – | > 100 µM (inactive) | – | > 100 µM (inactive) | > 100 µM (inactive)
COC(=O)C1CC=C(SC(=O)c2ccccc2)N1C(=O)c1ccccc1 (stereo not drawn) | > 100 µM (inactive) | > 100 µM (inactive) | > 100 µM (inactive) | > 100 µM (inactive) | – | > 100 µM (inactive) | > 100 µM (inactive) | > 100 µM (inactive) | > 100 µM (inactive) | – | > 100 µM (inactive) | – | – | – | – | – | – | – | – | –
Clc1nc(Cl)nc(Nc2cccc3ccccc23)n1 | > 10 µM (inactive) | – | > 10 µM (inactive) | > 10 µM (inactive) | > 10 µM (inactive) | > 10 µM (inactive) | > 10 µM (inactive) | > 10 µM (inactive) | > 10 µM (inactive) | > 10 µM (inactive) | > 10 µM (inactive) | – | – | – | – | – | – | > 10 µM (inactive) | – | –
C=CS(=O)(=O)c1c2cc(OC)ccc2nc2ccc(OC)cc12 | 3.35 µM (inactive) | 10.5 µM (inactive) | 7.91 µM (inactive) | 14.8 µM (inactive) | 2.21 µM (inactive) | 7.46 µM (inactive) | 2.94 µM (inactive) | 3.5 µM (inactive) | 10.4 µM (inactive) | 2.32 µM (inactive) | 7.62 µM (inactive) | – | – | – | – | – | – | 2.51 µM (inactive) | – | –
CCCCP1(=O)C=CC(Cl)=C(C)C1 (stereo not drawn) | > 100 µM (inactive) | – | > 100 µM (inactive) | > 100 µM (inactive) | – | > 100 µM (inactive) | – | – | – | – | > 100 µM (inactive) | > 100 µM (inactive) | – | – | > 100 µM (inactive) | > 100 µM (inactive) | > 100 µM (inactive) | > 100 µM (inactive) | > 100 µM (inactive) | –
